Measured values: US7544657B2, “Stabilized Exendin-4 compounds” (Zealand Pharma A/S, priority 2002, dated 2009)

Assays:
diabetic db/db mice = conditions: given systemically; cited from earlier work
db/db mice = assay: Oral glucose tolerance test (OGTT); assay type: in vivo; conditions: OGTT in db/db mice, compound i.p. 15 min before oral glucose 1 g/kg, ED50 based on curve fits of AUC0-240 min
Procedure: Oral Glucose Tolerance Test (OGTT)
The anti diabetic effect of the present compounds was tested in an oral glucose tolerance test (OGTT). In short, animals were fasted over night, and blood samples were taken from the tip of the tail and the blood glucose measured. The whole blood glucose (mM) concentration was analysed by the immobilised glucose oxidase method using a drop of blood (<5 μl; Elite Autoanalyser, Bayer, Denmark) following the manufacturer's manual. The animals were kept fasted throughout the test. Immediately after the initial blood sample (fasting blood glucose level) test compound or vehicle was administered i.p. Fifteen minutes later an oral dose of glucose ((1 g/kg) Sigma, St. Louis, Mo., U.S.A.)), dissolved in phosphate buffer (pH=7.40) was given, and the animals were returned to their home cages (time=0). […] To analyse the effects of the test compounds on oral glucose tolerance the absolute difference in BG from baseline (fasting BG) was calculated for each time point. The area under the curve (AUC) (FIG. 1-8) for the whole experiment (AUC0-120 min) or (AUC0-240 min) was determined using the trapezoid method. Before starting the experimental series an OGTT was used to stratify animals into groups of 9-10 animals displaying similar glucose tolerances in all groups. Animals displaying excessive glucose excursion 30 min after glucose loading (BG>33 mmol/l) were excluded from the study.

[1] = Table 2, another set of experiments

| Substance | lowering of blood glucose levels (diabetic db/db mice) [%] | ED50 (db/db mice; [1]) [nmol/kg] | ED50 (db/db mice; Table 1) [nmol/kg] |
| --- | --- | --- | --- |
| Exendin-4 | 40 | – | – |
| Compound 2: Stabilized derivative of Compound 1 (SEQ ID NO: 2), obtained by exposing Compound 1 to H2O2 (HGEGTFTSDLSKQMEEEAVRLFIEWLKDGGPSSGAPPSKKKKKK) | – | 0.011 | – |
| Compound 14: Stabilized derivative of Compound 1 (SEQ ID NO: 14), formed by incubation in NH4HCO3 pH 7.9 at 40° C. (HGEGTFTSDLSKQMEEEAVRLFIEWLKDGGPSSGAPPSKKKKKK) | – | – | 0.55 |
| Compound 5: Stabilized derivative of Compound 1 (SEQ ID NO: 5), formed by incubation in NH4HCO3 pH 7.9 at 40° C. (HGEGTFTSDLSKQMEEEAVRLFIEWLKDGGPSSGAPPSKKKKKK) | – | 0.043 | – |
| des Pro^36 Exendin-4 (1-39)-K6 [Compound 1] | – | 0.073 | 0.049 |
| Compound 6: Stabilized derivative of Compound 1 (SEQ ID NO: 6), formed by incubation in NH4HCO3 pH 7.9 at 40° C. (HGEGTFTSDLSKQMEEEAVRLFIEWLKDGGPSSGAPPSKKKKKK) | – | – | 0.013 |
